In one assay the target is VvelCSP1 (Vespa velutina auraria, UniProt A0A384ZVP9). As to the kind of experiment: Fluorescence competitive binding assay (1-NPN probe) with VvelCSP1. How it is done: (§1) Fluorescence competitive binding assays were employed to characterize the interactions between VvelCSPs and 13 volatiles shared between the elaiosomes of S. tuberosa and the cuticular hydrocarbons of honeybees. These tests were performed in 1 cm path length quartz cuvettes with an excitation wavelength of 337 nm and emission wavelength scanning from 400–450 nm. The volatiles and the fluorescent probe 1-NPN (1-N-phenylnaphthylamine), listed in Supplementary Table S2, were dissolved in methanol to prepare 100 mM stock solutions, which were then diluted to 1 mM working solutions [25]. To remove any potential endogenous ligands, the purified proteins were delipidated by three washes with an equal volume of dichloromethane (1:1 v/v). Each wash involved a 10-min incubation, and the process was followed by evaporation of the residual solvent under a gentle stream of nitrogen. Purified CSPs were resuspended in 20 mM Tris-HCl buffer (pH 7.5) to a final concentration of 2 μM. Binding parameters for CSP-NPN were determined by titration: 2 mL of CSP solution (2 μM) was titrated with 1-NPN (final concentrations: 2−24 μM). Maximum fluorescence intensity was recorded, and the dissociation constant was calculated. […] After incubation in the dark for 2 min, fluorescence quenching was measured. Half-maximal inhibitory concentration (IC50) values for volatiles were calculated from the competition curves, and their binding constants (Ki) were subsequently derived. The presented data, including IC50 and Ki values, originate from a single experiment under uniform conditions to ensure comparability (Supplementary Table S3).

In another assay the target is VvelCSP4. Kind of assay: Fluorescence competitive binding assay (1-NPN probe) with VvelCSP4. Details: species or system Vespa velutina auraria. How it is done: as §1
The target in a further assay is CsasCSP16. Details: method as in PMID 34082360. Conditions: CsasCSP16 from Carposina sasakii ref 42; cited from earlier work.
Where [1] appears, read: VvelCSP4 2 μM, 1-NPN 1 μM, Tris-HCl pH 7.5, single experiment, read-out: IC50 (ligand concentration displacing 50% of the fluorescence intensity of the CSPs/NPN complex).
[2] abbreviates: VvelCSP4, derived from IC50, read-out: Ki (dissociation constant).

Where two headings read alike, the source gives them in different places.

Chain of VvelCSP1 (A0A384ZVP9 entry or part of it): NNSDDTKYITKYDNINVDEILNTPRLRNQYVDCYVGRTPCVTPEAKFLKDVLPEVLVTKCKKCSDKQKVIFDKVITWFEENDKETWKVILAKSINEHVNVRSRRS

On to `CCCCCCCCCCCCCCCCCCCCCCCCC` [Pentacosane], for which the Raw fluorescence intensity at VvelCSP1 (VvelCSP1, chemical 0.5 μM) is 242.52; on VvelCSP1 (VvelCSP1, chemical 1 μM), 219.99; at VvelCSP1 (VvelCSP1, chemical 2 μM), 165.83; at VvelCSP1 (VvelCSP1, chemical 4 μM), 143.30; on VvelCSP1 (VvelCSP1, chemical 6 μM), 135.17; at VvelCSP1 (VvelCSP1, chemical 8 μM), 129.88. Besides, the Raw fluorescence intensity on VvelCSP1 (VvelCSP1, chemical 12 μM) is 124.70; on VvelCSP1 (VvelCSP1, chemical 16 μM), 122.60; with VvelCSP4 (VvelCSP4, chemical 0.5 μM), 211.45; in the assay with VvelCSP4 (VvelCSP4, chemical 1 μM), 182.28; in the assay with VvelCSP4 (VvelCSP4, chemical 2 μM) it was 160.44; in the assay on VvelCSP4 (VvelCSP4, chemical 4 μM), 139.39. The Raw fluorescence intensity is reported as 119.91 in the assay with VvelCSP4 (VvelCSP4, chemical 6 μM); 111.74 in the assay with VvelCSP4 (VvelCSP4, chemical 8 μM); 105.45 with VvelCSP4 (VvelCSP4, chemical 12 μM); 103.82 in the assay with VvelCSP4 (VvelCSP4, chemical 16 μM). Moreover, on VvelCSP4 (setting [1]), the IC50 amounted to 4.65 µM. Moreover, on VvelCSP4 (setting [2]), the Ki came out at 3.49 µM.
For the compound `CCCCCCCCCCCCCCCCCCCCCCCC` [Tetracosane], the Raw fluorescence intensity was found to be 225.09 on VvelCSP1 (VvelCSP1, chemical 0.5 μM); 200.88 at VvelCSP1 (VvelCSP1, chemical 1 μM); 176.79 at VvelCSP1 (VvelCSP1, chemical 2 μM); 157.66 at VvelCSP1 (VvelCSP1, chemical 4 μM); 144.05 at VvelCSP1 (VvelCSP1, chemical 6 μM); 131.64 on VvelCSP1 (VvelCSP1, chemical 8 μM). Besides, the Raw fluorescence intensity on VvelCSP1 (VvelCSP1, chemical 12 μM) turned out to be 122.98; at VvelCSP1 (VvelCSP1, chemical 16 μM) it was 117.42; with VvelCSP4 (VvelCSP4, chemical 0.5 μM) it was 216.50; with VvelCSP4 (VvelCSP4, chemical 1 μM), 198.86; in the assay with VvelCSP4 (VvelCSP4, chemical 2 μM), 178.28; in the assay on VvelCSP4 (VvelCSP4, chemical 4 μM) it was 160.59. In addition, the Raw fluorescence intensity in the assay with VvelCSP4 (VvelCSP4, chemical 6 μM) is 153.54; in the assay with VvelCSP4 (VvelCSP4, chemical 8 μM), 132.96; in the assay on VvelCSP4 (VvelCSP4, chemical 12 μM), 126.27; in the assay with VvelCSP4 (VvelCSP4, chemical 16 μM), 122.27. The IC50 at VvelCSP4 (setting [1]) amounted to 18.9 µM. Moreover, the Ki at VvelCSP4 (setting [2]) turned out to be 14.2 µM.
Turning to `CCCCCCCCCCCCCCCCCCCCCCCCCCCCCC` [Triacontane], the Raw fluorescence intensity was 211.63 at VvelCSP1 (VvelCSP1, chemical 0.5 μM); 196.09 at VvelCSP1 (VvelCSP1, chemical 1 μM); 180.51 on VvelCSP1 (VvelCSP1, chemical 2 μM); 166.41 on VvelCSP1 (VvelCSP1, chemical 4 μM); 152.93 at VvelCSP1 (VvelCSP1, chemical 6 μM); 143.85 at VvelCSP1 (VvelCSP1, chemical 8 μM). In addition, the Raw fluorescence intensity on VvelCSP1 (VvelCSP1, chemical 12 μM) came to 139.39; at VvelCSP1 (VvelCSP1, chemical 16 μM), 137.14; in the assay with VvelCSP4 (VvelCSP4, chemical 0.5 μM), 216.07; with VvelCSP4 (VvelCSP4, chemical 1 μM), 200.62; with VvelCSP4 (VvelCSP4, chemical 2 μM), 183.85; in the assay on VvelCSP4 (VvelCSP4, chemical 4 μM), 171.56. In addition, the Raw fluorescence intensity with VvelCSP4 (VvelCSP4, chemical 6 μM) came to 162.42; in the assay with VvelCSP4 (VvelCSP4, chemical 8 μM), 148.29; in the assay with VvelCSP4 (VvelCSP4, chemical 12 μM), 139.28; with VvelCSP4 (VvelCSP4, chemical 16 μM), 135.24. Besides, the IC50 at VvelCSP4 (VvelCSP4, read-out: IC50 (μM), no binding symbol) was above 24 µM. Also, the Ki at VvelCSP4 (VvelCSP4, read-out: Ki (μM), no binding symbol) was above 18 µM.
As for `CCCCCCCCCCCCCCCCCCCCCCC` [Tricosane], the Raw fluorescence intensity worked out at 193.01 on VvelCSP1 (VvelCSP1, chemical 0.5 μM); 170.16 on VvelCSP1 (VvelCSP1, chemical 1 μM); 140.89 on VvelCSP1 (VvelCSP1, chemical 2 μM); 116.63 on VvelCSP1 (VvelCSP1, chemical 4 μM); 101.34 on VvelCSP1 (VvelCSP1, chemical 6 μM); 94.22 on VvelCSP1 (VvelCSP1, chemical 8 μM). For the same compound, the Raw fluorescence intensity on VvelCSP1 (VvelCSP1, chemical 12 μM) is recorded as 88.89; on VvelCSP1 (VvelCSP1, chemical 16 μM) it was 86.00; in the assay on VvelCSP4 (VvelCSP4, chemical 0.5 μM) it was 207.46; in the assay on VvelCSP4 (VvelCSP4, chemical 1 μM) it was 177.45; with VvelCSP4 (VvelCSP4, chemical 2 μM), 153.67; in the assay with VvelCSP4 (VvelCSP4, chemical 4 μM) it was 134.98. Further, the Raw fluorescence intensity in the assay with VvelCSP4 (VvelCSP4, chemical 6 μM) turned out to be 119.90; with VvelCSP4 (VvelCSP4, chemical 8 μM) it was 111.62; with VvelCSP4 (VvelCSP4, chemical 12 μM) it was 110.10; with VvelCSP4 (VvelCSP4, chemical 16 μM), 107.68. Besides, the IC50 on VvelCSP4 (setting [1]) came out at 5.09 µM. Also, the Ki at VvelCSP4 (setting [2]) worked out at 3.85 µM.
On to `CCCCCCCC/C=C\CCCCCCCCCCCCC` [Z-9-Tricosene], for which the Raw fluorescence intensity was 214.80 at VvelCSP1 (VvelCSP1, chemical 0.5 μM); 200.54 on VvelCSP1 (VvelCSP1, chemical 1 μM); 176.56 at VvelCSP1 (VvelCSP1, chemical 2 μM); 164.98 at VvelCSP1 (VvelCSP1, chemical 4 μM); 151.46 at VvelCSP1 (VvelCSP1, chemical 6 μM); 137.73 on VvelCSP1 (VvelCSP1, chemical 8 μM). Also, the Raw fluorescence intensity is given as 126.20 at VvelCSP1 (VvelCSP1, chemical 12 μM); 120.19 at VvelCSP1 (VvelCSP1, chemical 16 μM); 182.16 in the assay with VvelCSP4 (VvelCSP4, chemical 0.5 μM); 152.13 with VvelCSP4 (VvelCSP4, chemical 1 μM); 132.92 in the assay on VvelCSP4 (VvelCSP4, chemical 2 μM); 109.71 with VvelCSP4 (VvelCSP4, chemical 4 μM). Moreover, the Raw fluorescence intensity with VvelCSP4 (VvelCSP4, chemical 6 μM) came out at 96.72; in the assay with VvelCSP4 (VvelCSP4, chemical 8 μM), 89.44; with VvelCSP4 (VvelCSP4, chemical 12 μM), 84.83; in the assay with VvelCSP4 (VvelCSP4, chemical 16 μM), 83.78. For the same compound, the IC50 at VvelCSP4 (setting [1]) is 3.97 µM. Further, on VvelCSP4 (setting [2]), the Ki was 2.97 µM.
In the case of `CCCCCCCCCCCCCCC` [pentadecane], the Ki at CsasCSP16 was 3.5 µM.

(Values after article PMC12652730, “The Chemoreceptive Molecular Mechanism Underlying CSP-Mediated Recognition of Seed Elaiosome from Stemona tuberosa by Hornets” (Genes, 2025).)
